Source: patent US20240390340A1 (INCYTE CORPORATION, priority 2023, published 2024)
Where two headings read alike, the source gives them in different places.

Assays:
KRAS G12V = KRAS G12V (Homo sapiens, UniProt P01116, G12V); test: GDP-GTP exchange assay (bodipy-GDP/GppNHp, SOS1), KRAS G12V; format: biochemical
KRAS G12D = KRAS G12D (Homo sapiens, UniProt P01116, G12D); test: GDP-GTP exchange assay (bodipy-GDP/GppNHp, SOS1), KRAS G12D; format: biochemical
[1] = KRAS G12V mutant, value for the most potent isomer quoted for certain compounds, read-out: G12V (KRAS G12V exchange assay IC50)
[2] = bodipy-loaded KRAS G12D 2.5 nM, 4 h pre-incubation, value for the most potent isomer quoted for certain compounds, read-out: G12D (KRAS G12D exchange assay IC50)
[3] = Table H, column G12V, for compounds isolated as several atropisomers/diastereoisomers the value for the most potent isomer is quoted, read-out: KRAS G12V exchange assay IC50
[4] = Table H, column G12D, for compounds isolated as several atropisomers/diastereoisomers the value for the most potent isomer is quoted, read-out: KRAS G12D exchange assay IC50

Chain of KRAS G12V (P01116 1-188 isoform P01116-2 G12V): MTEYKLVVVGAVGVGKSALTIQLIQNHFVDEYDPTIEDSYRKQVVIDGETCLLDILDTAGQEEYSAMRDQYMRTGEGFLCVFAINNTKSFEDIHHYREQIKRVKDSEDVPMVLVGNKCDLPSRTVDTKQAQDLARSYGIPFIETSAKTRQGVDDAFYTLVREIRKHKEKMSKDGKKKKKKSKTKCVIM
Chain of KRAS G12D (P01116 1-188 isoform P01116-2 G12D): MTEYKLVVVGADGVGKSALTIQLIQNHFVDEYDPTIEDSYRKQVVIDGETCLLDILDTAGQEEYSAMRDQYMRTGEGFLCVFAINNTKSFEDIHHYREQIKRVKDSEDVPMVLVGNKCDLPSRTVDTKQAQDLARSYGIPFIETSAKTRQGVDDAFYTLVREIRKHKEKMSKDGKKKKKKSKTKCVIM

SMILES | IC50 (KRAS G12V; [1]) [µM] | IC50 (KRAS G12D; [2]) [µM] | IC50 (KRAS G12V; [3]) [µM] | IC50 (KRAS G12D; [4]) [µM]
Cc1nc2c(F)c(-c3cccc(Cl)c3Cl)c(CCC#N)cc2c2c1cc([C@H]1C[C@H](n3cc(-c4ccccc4)cn3)CN1C(=O)C1CC1)n2[C@H]1[C@H]2CN[C@@H]1C2 [Example 354] | 0.1 to 1 | ≤ 0.1 |  | 
Cc1nc2c(F)c(-c3cccc(Cl)c3Cl)c(CCC#N)cc2c2c1cc([C@H]1C[C@H](n3cc(C4(C)CCC4)nn3)CN1C(=O)C1CC1)n2[C@H]1[C@H]2CN[C@@H]1C2 [Example 384] | ≤ 0.1 | ≤ 0.1 |  | 
Cc1nc2c(F)c(-c3cccc(Cl)c3Cl)c(CCC#N)cc2c2c1cc([C@H]1C[C@H](Oc3ccc(=O)n(C)c3)CN1C(=O)C1CC1)n2[C@H]1[C@H]2CN[C@@H]1C2 [Example 50] |  |  | ≤ 0.1 | ≤ 0.1
Cc1nc2c(F)c(-c3cccc(Cl)c3Cl)c(CCC#N)cc2c2c1cc([C@H]1C[C@H](Oc3ccn(C(F)(F)F)n3)CN1C(=O)C1CC1)n2[C@H]1[C@H]2CN[C@@H]1C2 [Example 357] | ≤ 0.1 | ≤ 0.1 |  | 
COc1ccccc1O[C@H]1C[C@H](c2cc3c(C)nc4c(F)c(-c5cccc(Cl)c5Cl)c(CCC#N)cc4c3n2[C@H]2[C@H]3CN[C@@H]2C3)N(C(=O)C2CC2)C1 [Example 250] | ≤ 0.1 | ≤ 0.1 |  | 
C[C@@H](O)c1nc2c(F)c(-c3cccc(Cl)c3Cl)c(CCC#N)cc2c2c1cc([C@H]1[C@@H](F)[C@H](Oc3ccccn3)CN1C(=O)C1CC1)n2[C@H]1[C@H]2CN[C@@H]1C2 [Example 85] | ≤ 0.1 | ≤ 0.1 |  | 
Cc1nc2c(F)c(-c3cccc(Cl)c3Cl)c(CCC#N)cc2c2c1cc([C@H]1C[C@H](Oc3ccnn3C(F)(F)F)CN1C(=O)C1CC1)n2[C@H]1[C@H]2CN[C@@H]1C2 [Example 406] | ≤ 0.1 | ≤ 0.1 |  | 
Cc1nc2c(F)c(-c3cccc(Cl)c3Cl)c(CCC#N)cc2c2c1cc([C@H]1C[C@H](Oc3cccc4c3cnn4C)CN1C(=O)C1CC1)n2[C@H]1[C@H]2CN[C@@H]1C2 [Example 133] | ≤ 0.1 | ≤ 0.1 |  | 
Cc1cc(CO[C@H]2C[C@H](c3cc4c(C)nc5c(F)c(-c6cccc(Cl)c6Cl)c(CCC#N)cc5c4n3[C@H]3[C@H]4CN[C@@H]3C4)N(C(=O)C3CC3)[C@H]2C)ns1 [Example 212] | ≤ 0.1 | ≤ 0.1 |  | 
Cc1nc2c(F)c(-c3cccc(Cl)c3Cl)c(CCC#N)cc2c2c1cc([C@H]1C[C@H](Oc3ccncc3)CN1C(=O)C1CC1)n2[C@H]1[C@H]2CN[C@@H]1C2 [Example 193] | ≤ 0.1 | ≤ 0.1 |  | 
Cc1nc2c(F)c(-c3cccc(Cl)c3Cl)c(CCC#N)cc2c2c1cc([C@H]1C[C@H](OCC3CCCC3)CN1C(=O)C1CC1)n2[C@H]1[C@H]2CN[C@@H]1C2 [Example 153] | ≤ 0.1 | ≤ 0.1 |  | 
Cc1nc2c(F)c(-c3cccc(Cl)c3Cl)c(CCC#N)cc2c2c1cc([C@H]1C[C@H](Oc3nn(C)c4ccccc34)CN1C(=O)C1CC1)n2[C@H]1[C@H]2CN[C@@H]1C2 [Example 192] | ≤ 0.1 | ≤ 0.1 |  | 
Cc1nc2c(F)c(-c3cccc(Cl)c3Cl)c(CCC#N)cc2c2c1cc([C@H]1C[C@H](OC[C@@H]3CCOC3)CN1C(=O)C1CC1)n2[C@H]1[C@H]2CN[C@@H]1C2 [Example 373] | ≤ 0.1 | ≤ 0.1 |  | 
Cc1nc2c(F)c(-c3cccc(Cl)c3Cl)c(CCC#N)cc2c2c1cc([C@H]1C[C@H](Oc3ccn(C)c(=O)c3)CN1C(=O)C1CC1)n2[C@H]1[C@H]2CN[C@@H]1C2 [Example 419] | ≤ 0.1 | ≤ 0.1 |  | 
Cc1nc2c(F)c(-c3cccc(Cl)c3Cl)c(CCC#N)cc2c2c1cc([C@H]1C[C@H](n3cc(C45CC(N)(C4)C5)nn3)CN1C(=O)C1CC1)n2[C@H]1[C@H]2CN[C@@H]1C2 [Example 275] | ≤ 0.1 | ≤ 0.1 |  | 
Cc1csnc1C(C)O[C@H]1C[C@H](c2cc3c(C)nc4c(F)c(-c5cccc(Cl)c5Cl)c(CCC#N)cc4c3n2[C@H]2[C@H]3CN[C@@H]2C3)N(C(=O)C2CC2)C1 (some centres unmarked) [Example 330] | ≤ 0.1 | ≤ 0.1 |  | 
Cc1nc2c(F)c(-c3cccc(Cl)c3Cl)c(CCC#N)cc2c2c1cc([C@H]1C[C@H](O[C@@H]3CCOC3)CN1C(=O)C1CC1)n2[C@H]1[C@H]2CN[C@@H]1C2 [Example 30] |  |  | ≤ 0.1 | ≤ 0.1
Cc1nc2c(F)c(-c3cccc(Cl)c3Cl)c(CCC#N)cc2c2c1cc([C@H]1C[C@H](Oc3cccc(C#N)c3)[C@H](C)N1C(=O)C1CC1)n2[C@H]1[C@H]2CN[C@@H]1C2 [Example 209] | 0.1 to 1 | ≤ 0.1 |  | 

Other lines, results leading:

IC50 (KRAS G12V; [1]) [µM] | IC50 (KRAS G12D; [2]) [µM] | IC50 (KRAS G12V; [3]) [µM] | IC50 (KRAS G12D; [4]) [µM] | SMILES
≤ 0.1 | ≤ 0.1 |  |  | Cc1nc2c(F)c(-c3cccc(Cl)c3Cl)c(CCC#N)cc2c2c1cc([C@H]1C[C@H](Oc3cccc(C(F)(F)F)n3)CN1C(=O)C1CC1)n2[C@H]1C2CNC1C2 (some centres unmarked) [Example 142]
≤ 0.1 | ≤ 0.1 |  |  | Cc1nc2c(F)c(-c3cccc(Cl)c3Cl)c(CCC#N)cc2c2c1cc([C@H]1C[C@H](OCc3c(F)cccc3F)CN1C(=O)C1CC1)n2[C@H]1[C@H]2CN[C@@H]1C2 [Example 115]
≤ 0.1 | ≤ 0.1 |  |  | Cc1nc2c(F)c(-c3cccc(Cl)c3Cl)c(CCC#N)cc2c2c1cc([C@H]1C[C@H](OCc3ccnn3C(F)F)CN1C(=O)C1CC1)n2[C@H]1[C@H]2CN[C@@H]1C2 [Example 313]
≤ 0.1 | ≤ 0.1 |  |  | Cc1nc2c(F)c(-c3cccc(Cl)c3Cl)c(CCC#N)cc2c2c1cc([C@H]1C[C@H](OCc3ccnn3C(F)(F)F)CN1C(=O)C1CC1)n2[C@H]1[C@H]2CN[C@@H]1C2 [Example 312]
≤ 0.1 | ≤ 0.1 |  |  | Cc1nc2c(F)c(-c3cccc(Cl)c3Cl)c(CCC#N)cc2c2c1cc([C@H]1C[C@H](OCc3nsc4cc(F)ccc34)CN1C(=O)C1CC1)n2[C@H]1[C@H]2CN[C@@H]1C2 [Example 256]
≤ 0.1 | ≤ 0.1 |  |  | Cc1nc2c(F)c(-c3cccc(Cl)c3Cl)c(CCC#N)cc2c2c1cc([C@H]1C[C@H](Oc3cccc(OC(F)(F)F)c3)CN1C(=O)C1CC1)n2[C@H]1[C@H]2CN[C@@H]1C2 [Example 171]
≤ 0.1 | ≤ 0.1 |  |  | COc1cccc(O[C@H]2C[C@H](c3cc4c(C)nc5c(F)c(-c6cccc(Cl)c6Cl)c(CCC#N)cc5c4n3[C@H]3C4CNC3C4)N(C(=O)C3CC3)C2)n1 (some centres unmarked) [Example 199]
≤ 0.1 | ≤ 0.1 |  |  | CCOC(=O)c1cn([C@H]2C[C@H](c3cc4c(C)nc5c(F)c(-c6cccc(Cl)c6Cl)c(CCC#N)cc5c4n3[C@H]3[C@H]4CN[C@@H]3C4)N(C(=O)C3CC3)C2)nn1 [Example 394]
≤ 0.1 | ≤ 0.1 |  |  | Cc1nc2c(F)c(-c3cccc(Cl)c3Cl)c(CCC#N)cc2c2c1cc([C@H]1C[C@H](Oc3cnn(C(F)(F)F)c3)CN1C(=O)C1CC1)n2[C@H]1[C@H]2CN[C@@H]1C2 [Example 374]
≤ 0.1 | ≤ 0.1 |  |  | Cc1cccc(CO[C@H]2C[C@H](c3cc4c(C)nc5c(F)c(-c6cccc(Cl)c6Cl)c(CCC#N)cc5c4n3[C@H]3[C@H]4CN[C@@H]3C4)N(C(=O)C3CC3)C2)c1 [Example 91]
≤ 0.1 | ≤ 0.1 |  |  | Cc1nc2c(F)c(-c3cccc(Cl)c3Cl)c(CCC#N)cc2c2c1cc([C@H]1C[C@H](OCc3ccc(Cl)cc3C#N)CN1C(=O)C1CC1)n2[C@H]1[C@H]2CN[C@@H]1C2 [Example 159]
≤ 0.1 | ≤ 0.1 |  |  | Cc1ccnc(C)c1CO[C@H]1C[C@H](c2cc3c(C)nc4c(F)c(-c5cccc(Cl)c5Cl)c(CCC#N)cc4c3n2[C@H]2[C@H]3CN[C@@H]2C3)N(C(=O)C2(C)CC2)C1 [Example 140]
≤ 0.1 | ≤ 0.1 |  |  | Cc1nc2c(F)c(-c3cccc(Cl)c3Cl)c(CCC#N)cc2c2c1cc([C@H]1C[C@H](OC(C)c3nccs3)CN1C(=O)C1CC1)n2[C@H]1[C@H]2CN[C@@H]1C2 (some centres unmarked) [Example 363]
≤ 0.1 | ≤ 0.1 |  |  | Cc1cc(C)cc(CO[C@H]2C[C@H](c3cc4c(C)nc5c(F)c(-c6cccc(Cl)c6Cl)c(CCC#N)cc5c4n3[C@H]3[C@H]4CN[C@@H]3C4)N(C(=O)C3CC3)C2)c1 [Example 123]
≤ 0.1 | ≤ 0.1 |  |  | COc1ncc(Cl)cc1O[C@H]1C[C@H](c2cc3c(C)nc4c(F)c(-c5cccc(Cl)c5Cl)c(CCC#N)cc4c3n2[C@H]2[C@H]3CN[C@@H]2C3)N(C(=O)C2CC2)C1 [Example 448]
≤ 0.1 | ≤ 0.1 |  |  | Cc1nc2c(F)c(-c3cccc(Cl)c3Cl)c(CCC#N)cc2c2c1cc([C@H]1C[C@H](Oc3cccnc3OCC(F)(F)F)CN1C(=O)C1CC1)n2[C@H]1[C@H]2CN[C@@H]1C2 [Example 446]
≤ 0.1 | ≤ 0.1 |  |  | Cc1ccnc(O[C@H]2C[C@H](c3cc4c([C@@H](C)O)nc5c(F)c(-c6cccc(Cl)c6Cl)c(CCC#N)cc5c4n3[C@H]3C4CNC3C4)N(C(=O)C3CC3)C2)c1 (some centres unmarked) [Example 424]
≤ 0.1 | ≤ 0.1 |  |  | Cc1nc2c(F)c(-c3cccc(Cl)c3Cl)c(CCC#N)cc2c2c1cc([C@H]1C[C@H](Oc3cc(N4CC(OC(F)F)C4)ccn3)CN1C(=O)C1CC1)n2[C@H]1[C@H]2CN[C@@H]1C2 [Example 369]
≤ 0.1 | ≤ 0.1 |  |  | Cc1nc2c(F)c(-c3cccc(Cl)c3Cl)c(CCC#N)cc2c2c1cc([C@H]1C[C@H](OCc3ccccn3)[C@@H](C)N1C(=O)C1CC1)n2[C@H]1[C@H]2CN[C@@H]1C2 [Example 243]
≤ 0.1 | ≤ 0.1 |  |  | CCc1cccc(O[C@H]2C[C@H](c3cc4c(C)nc5c(F)c(-c6cccc(Cl)c6Cl)c(CCC#N)cc5c4n3[C@H]3[C@H]4CN[C@@H]3C4)N(C(=O)C3CC3)C2)c1 [Example 167]
≤ 0.1 | ≤ 0.1 |  |  | Cc1nc2c(F)c(-c3cccc(Cl)c3Cl)c(CCC#N)cc2c2c1cc([C@H]1C[C@H](OCc3c(F)cccc3C#N)CN1C(=O)C1CC1)n2[C@H]1[C@H]2CN[C@@H]1C2 [Example 126]
≤ 0.1 | ≤ 0.1 |  |  | Cc1nc2c(F)c(-c3cccc(Cl)c3Cl)c(CCC#N)cc2c2c1cc([C@H]1C[C@H](OCc3nsc4ccccc34)CN1C(=O)C1CC1)n2[C@H]1[C@H]2CN[C@@H]1C2 [Example 255]
